Laboratory results from article PMC5390467, “Novel lead structures with both Plasmodium falciparum gametocytocidal and asexual blood stage activity identified from high throughput compound screening” (Malaria Journal, 2017).
“And” between values parts separate entries of the source, which are not always exact repeats. Equal values may be shown once.

Experiments:
MST4 = biological target: T1, MST4 (Homo sapiens, UniProt Q9P289); assay: Kinome scan profile; format: binding; details: 10 μM
T1 construct: purchased DiscoverX (KINOMEscan)
T1 sequence (Q9P289 whole entry): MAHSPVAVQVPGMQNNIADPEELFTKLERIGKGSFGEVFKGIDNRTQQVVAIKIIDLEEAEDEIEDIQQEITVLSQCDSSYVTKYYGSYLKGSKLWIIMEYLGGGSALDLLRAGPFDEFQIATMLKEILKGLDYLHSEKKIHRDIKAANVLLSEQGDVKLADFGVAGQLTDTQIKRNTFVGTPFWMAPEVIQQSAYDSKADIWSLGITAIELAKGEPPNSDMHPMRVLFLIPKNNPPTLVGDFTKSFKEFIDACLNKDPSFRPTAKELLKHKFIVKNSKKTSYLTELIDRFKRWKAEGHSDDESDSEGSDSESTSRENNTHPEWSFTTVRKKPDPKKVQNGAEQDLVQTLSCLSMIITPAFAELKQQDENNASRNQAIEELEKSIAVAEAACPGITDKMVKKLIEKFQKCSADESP

[1] = biological target: T2, RSK2(Kin.Dom.2-C-terminal) (Homo sapiens, UniProt P51812); assay: Kinome scan profile; format: binding; details: 10 μM
T2 construct: RSK2(Kin.Dom.2-C-terminal); purchased DiscoverX (KINOMEscan)
T2 sequence (P51812 422-679 limits assumed): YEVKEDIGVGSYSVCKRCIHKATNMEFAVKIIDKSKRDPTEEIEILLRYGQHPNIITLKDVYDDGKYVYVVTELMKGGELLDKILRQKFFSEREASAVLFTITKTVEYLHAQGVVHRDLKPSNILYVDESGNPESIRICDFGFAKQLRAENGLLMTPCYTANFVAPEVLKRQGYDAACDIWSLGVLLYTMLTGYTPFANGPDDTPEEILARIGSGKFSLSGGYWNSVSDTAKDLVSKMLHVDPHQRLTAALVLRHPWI

[2] = biological target: T3, ABL1(Q252H)-phosphorylated (Homo sapiens, UniProt P00519, Q252H); assay: Kinome scan profile; format: binding; details: 10 μM
T3 construct: purchased DiscoverX (KINOMEscan)

TRKA = biological target: T4, TRKA (Homo sapiens, UniProt P04629); assay: Kinome scan profile; format: binding; details: 10 μM
T4 construct: purchased DiscoverX (KINOMEscan)
T4 sequence (P04629 33-796): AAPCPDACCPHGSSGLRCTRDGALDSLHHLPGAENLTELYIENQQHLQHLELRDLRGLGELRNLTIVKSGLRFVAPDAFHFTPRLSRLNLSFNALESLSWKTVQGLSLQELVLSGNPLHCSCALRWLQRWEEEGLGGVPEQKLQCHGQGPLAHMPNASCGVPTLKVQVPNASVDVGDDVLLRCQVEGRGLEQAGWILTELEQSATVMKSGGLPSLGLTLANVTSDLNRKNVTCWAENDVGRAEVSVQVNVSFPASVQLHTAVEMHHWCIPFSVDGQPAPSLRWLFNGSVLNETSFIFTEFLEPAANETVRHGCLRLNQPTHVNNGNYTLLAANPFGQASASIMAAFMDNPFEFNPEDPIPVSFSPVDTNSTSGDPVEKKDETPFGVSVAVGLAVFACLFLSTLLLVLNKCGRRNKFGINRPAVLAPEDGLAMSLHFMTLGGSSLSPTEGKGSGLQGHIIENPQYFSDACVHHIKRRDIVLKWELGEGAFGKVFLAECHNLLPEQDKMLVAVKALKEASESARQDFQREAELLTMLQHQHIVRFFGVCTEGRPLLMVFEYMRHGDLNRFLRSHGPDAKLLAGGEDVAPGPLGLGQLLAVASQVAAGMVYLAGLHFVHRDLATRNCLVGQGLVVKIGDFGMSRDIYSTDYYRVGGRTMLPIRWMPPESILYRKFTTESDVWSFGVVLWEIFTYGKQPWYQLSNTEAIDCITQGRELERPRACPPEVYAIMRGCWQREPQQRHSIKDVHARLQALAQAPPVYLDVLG

CDK4-cyclinD3 = biological target: T5, CDK4-cyclinD3 (Homo sapiens, UniProt P11802); assay: Kinome scan profile; format: binding; details: 10 μM
T5 construct: purchased DiscoverX (KINOMEscan)
T5 sequence (P11802 whole entry): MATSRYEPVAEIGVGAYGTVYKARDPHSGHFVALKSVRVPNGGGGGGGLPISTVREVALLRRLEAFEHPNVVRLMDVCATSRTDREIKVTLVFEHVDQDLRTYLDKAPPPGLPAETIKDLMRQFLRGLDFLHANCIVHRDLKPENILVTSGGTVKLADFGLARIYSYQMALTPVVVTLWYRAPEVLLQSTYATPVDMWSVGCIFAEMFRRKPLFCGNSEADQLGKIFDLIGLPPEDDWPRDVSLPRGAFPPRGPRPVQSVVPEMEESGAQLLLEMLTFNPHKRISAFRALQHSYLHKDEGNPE
T5 sequence (P30281 whole entry partner): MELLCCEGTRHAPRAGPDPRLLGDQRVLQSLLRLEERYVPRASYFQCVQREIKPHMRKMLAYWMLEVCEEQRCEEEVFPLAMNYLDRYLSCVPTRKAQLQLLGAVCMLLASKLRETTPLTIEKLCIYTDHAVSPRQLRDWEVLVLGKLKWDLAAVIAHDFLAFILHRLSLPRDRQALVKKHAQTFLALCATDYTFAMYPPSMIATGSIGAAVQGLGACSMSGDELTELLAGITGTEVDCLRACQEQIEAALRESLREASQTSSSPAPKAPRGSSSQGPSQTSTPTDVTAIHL

[3] = system: P. falciparum NF54 gametocytes; assay: gametocyte viability assay (AlamarBlue); format: cell-based, Plasmodium falciparum
Experimental: Asexual parasites of P. falciparum strain NF54 were cultured as described previously. Briefly, parasites were maintained in RPMI 1640 medium containing 10% positive human serum + erythrocytes (5% haematocrit), 2.5% sodium bicarbonate and 11 µg/mL gentamicin at 37 °C with 5% CO2, 5% O2 and 90% N2. Gametocyte cultures were set up at 0.1% parasitaemia and on days 9–10 treated with 50 mM N-acetylglucosamine (NAG) to block further asexual growth. Stage III–V gametocytes were isolated by Percoll density gradient centrifugation on day 12 and returned to culture for 24 h before being used in the assay. At the time of the assay over 73% of the gametocytes were stage IV or V (Additional file 1). HepG2 cells (ATCC, cat. no. 77400) were cultured in 175-cm^2 tissue culture flasks with 30 ml growth medium at 37 °C in a 5% CO2 and 5% O2 humidified atmosphere. Growth medium was made with Dulbecco’s Modified Eagle Medium with 10% fetal bovine serum (FBS). Growth medium was replaced every other day and cells were passaged at 75% confluence.
Compounds from the Sytravon library (a retired Pharma screening collection that contains a diversity of novel small molecules, with an emphasis on medicinal chemistry-tractable scaffolds) were obtained as powder samples and dissolved in DMSO as […] stock solutions. Compound screening experiments were performed as previously described. In the primary screen, two concentrations for each compound were tested. No technical and biological replicates were involved. In the follow-up confirmation studies, three biological replicates were tested for each compound in both parasite assays. The positive control was 46 µM of Torin 2 and negative control was DMSO. Briefly, 2.5 μL/well incomplete medium was dispensed into each well of 1536-well plates using the Multidrop Combi followed by 23 nL compound transferring using the NX-TR Pintool (WAKO Scientific Solutions, San Diego, CA). Then, 2.5 μL/well of gametocytes was dispensed with a seeding density of 20,000 cells/well using the Multidrop Combi. The assay plates were incubated for 72 h at 37 °C with 5% CO2. After addition of 5 μL/well of 2X AlamarBlue dye (Life Technologies, cat. no. DAL1100), the plates were incubated for 24 h at 37 °C with 5% CO2 and then were read in a fluorescence detection mode (Ex = 525 nm, Em = 598 nm) on a ViewLux plate reader (PerkinElmer).

For `CCN1CCN(Cc2c(O)ccc3c(=O)c(Oc4ccccc4C(C)C)c(C(F)(F)F)oc23)CC1` [NCGC00100599], the “% Control, MST4” value (MST4) was 34 % Control, the “% Control, RSK2(Kin.Dom.2-C-terminal)” value [1] was 29 % Control and the “% Control, ABL1(Q252H)-phosphorylated” value [2] was 9.9 % Control. The “% Control, TRKA” value (TRKA) was 22 % Control, the “% Control, CDK4-cyclinD3” value (CDK4-cyclinD3) was 15 % Control and the IC50 ([3]; P. falciparum NF54 stage III-V gametocytes, 72 h, AlamarBlue, mean ± SD, n = 3) was 4.18 µM and 4.34 µM. The Asexual/Gametocyte ([3]; ratio of asexual IC50 to gametocyte IC50) was 0.08.
